The values that follow are results of earlier work, collected in US20140030241A1 (NESTEC S.A., priority 2011, published 2014).

Data set [1] deals with IgG and IgM response. To be noted: rodents.
For data set [2] the following is noted: enters circulation without being metabolized by the liver.
In data set [3] the test system is Candida albicans. To be noted: rodents on nucleotide free diet, Candida albicans challenge.
The subject of data set [4] is Splenic lymphocytes. To be noted: rodents on nucleotide free diets, additions to the diet.

Take `O=c1ccn([C@@H]2O[C@H](COP(=O)(O)O)[C@@H](O)[C@H]2O)c(=O)[nH]1` [UMP, 5′-Uracil Monophosphate]: in data set [1], the IgG response result is “increased IgG response”.

As to `NC(=O)NCCC[C@H](N)C(=O)O` [citrulline], the “conversion to arginine in the kidneys” value in data set [2] was “almost complete”.

For `Nc1nc2c(ncn2[C@@H]2O[C@H](COP(=O)(O)O)[C@@H](O)[C@H]2O)c(=O)[nH]1` [GMP, 5′-Guanosine Monophosphate], in data set [1], the IgG response result is “increased IgG response” and the IgM response result is listed as “increase IgM response”.

As to `Nc1ncnc2nc[nH]c12` [adenine], the survival time entry in data set [3] is recorded as “not”.

Turning to `O=c1cc[nH]c(=O)[nH]1` [uracil], in data set [3], the survival time entry is on record as “increase survival time”. Also, the “suppressed cell-mediated immune responses (proliferation to mitogens, IL-2 production, IL-2 receptor and Lyt-1 markers, delayed cutaneous hypersensitivity)” value in data set [4] was “largely reversed”.

As to `Nc1ncnc2c1ncn2[C@@H]1O[C@H](COP(=O)(O)O)[C@@H](O)[C@H]1O` [AMP, 5-Adenosine Monophosphate], in data set [1], the IgG response entry was “increased IgG response”.
